Experimental data taken from patent US9023350B2, “Synergistic pharmaceutical composition useful for inhibiting corneal and retinal neovascularization (angiogenesis), and in other organs, in a human being or animals” (Association Civil de Estudios Superiores, priority 2007, dated 2015).

How the values were obtained:
corneal neovasculization = assay: Corneal neovasculization model (NaOH alkali burn of the cornea), neovasculization index; type: in vivo; conditions: rabbit, during 35 days of evaluation, single iv dose
Method: After anaesthetizing a Newzealender breed white rabbit of 3 kg. with a midazolam and ketamine hydrochloride with an intramuscular injection, installation of topical proparacaine was performed (Anestalcon, Alcon, Argentina) in the eye and a blepharostat was place on the right eye. During 20 seconds 7 mm diameter dicks of Whatman filter paper were soaked in a 1N NaOH solution. The paper disk was placed on the central part of the cornea with a pincer leaving it there for 2 minutes. Immediately afterwards the injured zone was washed with 15 ml saline physiological solution (CINa, 0.9%) during one minute. The same process was performed on 12 rabbits of the same color, breed and weight.
Formation of neovessels were quantified with a value of 0 to 4 to each quadrant according to the centripetal growth of the longest vessel (in 1 mm increases i.e, 0=0 mm; 1=equal or less than 1 mm; 2=more than 1 and up to 2 mm; 3=more than 2 and up to 3 mm; 4=more than 3 mm). The sum of the four quadrants provided the neovasculization index (INV) for that eye.
24 hs after the lesion was caused the first clinical examination was performed and was then continued every three days. This was carried out using an operator microscope or a surgical magnifying glass and photographs were taken with a digital camera Nikon Coolpix 5700. The INV register was performed on days 9, 15, 21 and 35 on all the animals. […]

[1] = test system: CT26 cells (colon adenocarcinoma); assay: Oncological angiogenesis model, subcutaneous CT26 tumors; type: in vivo, Balb/c rats; conditions: day 31; single iv dose on day 7: Suramine 20 mg/Kg, Bevacizumab 5 mg/Kg, suramab = Suramine 20 mg/Kg + Bevacizumab 5 mg/Kg
Method: 5×10^5 CT26 cells (colon adenocarcinoma) were inoculated subcutaneously, in the dorsal-lateral region of Balb/c rats. On the 7th day of inoculation 4 groups of animals were formed that received different treatments via iv (in the tail vein).
• a. […] Control group: (n=7) PS 100 μl under slow infusion.
The tumors were measured three times per week. The following formula was used to calculate the tumor volume: […]. The animals having tumors volumes greater or equal to 8000 mm3 were sacrificed.
Survival was considered till day 35 post tumor inoculation.

Compound: Cc1ccc(C(=O)Nc2ccc(S(=O)(=O)O)c3cc(S(=O)(=O)O)cc(S(=O)(=O)O)c23)cc1NC(=O)c1cccc(NC(=O)Nc2cccc(C(=O)Nc3cc(C(=O)Nc4ccc(S(=O)(=O)O)c5cc(S(=O)(=O)O)cc(S(=O)(=O)O)c45)ccc3C)c2)c1 [Suramine]
- effect on corneal neovasculization (in words) (corneal neovasculization): inhibiting effect on neovasculization
- tumor volume compared to the control group (in words) [1]: reduction of tumor volume compared to the control group

Compound: Bevacizumab: monoclonal antibody, humanized and recombinant, that binds to VEGF-A
- effect on corneal neovasculization (in words) (corneal neovasculization): inhibiting effect on neovasculization
- tumor volume compared to the control group (in words) [1]: reduction of tumor volume compared to the control group
